Values after ≈ are worked out from the molar mass of the structure shown. Values joined by “and” are separate entries in the source; they are usually repeats but may differ in a detail not shown here. Equal entries are not always repeated.

For one experiment, the system named is S. aureus 29213. Put plainly: Anti-cell growth activity, S. aureus 29213. It counts as cell-based. As for the experimental part:
(§1) The anti-cell growth activity of Compound 1 on other fungal strains, as well as bacterial strains and cultured mammalian cells, was also tested (Table 3). […] Bacterial cell growth and mammalian cell growth was inhibited at substantially higher concentrations of Compound 1.

Another experiment has as its system C. albicans UTR-14. In words: Candida growth inhibition, C. albicans UTR-14. The experiment is classed as cell-based. The note with it: C. albicans UTR-14, fluconazole-resistant strain. On the procedure: (§2) There are numerous assays that can be used to measure the inhibition of growth of a fungus such as Candida. In one example, cultures of Candida, e.g., C. albicans strains DSY1024 and SC5314, C. krusei ATCC 6258, and C. glabrata ATCC 90030, are subcultured from cryopreserved stocks onto Sabouraud's dextrose agar plates. Blastoconidia are suspended into RPMI-MOPS medium and inoculated (500 cfu/well) into 96-well plates containing test compounds in a final volume of 100 μL/well. After 22 hours at 35° C., 25 μL of XTT (2,3-bis(2-methoxy-4-nitro-5-sulfophenyl)-5-(phenylamino)carbonyl]-2H-tetrazolium hydroxide), (100 μg/mL) with PMS (phenazine methyl sulfate, 5 μM) are added to each well, followed by 2 hours of shaking. Growth is assessed spectrophotometrically by measuring the appearance of soluble formazan stain at 450 nm using an Emax microplate reader. Validity of the assay is confirmed by determination of the C. albicans minimum inhibitory concentration (MIC) for known antifungal agents such as amphotericin B, 5-flucytosine, fluconazole, nikkomycin Z, and polyoxin D.
(§3) Using the cell growth assay described herein, Compound 1 was tested for its ability to inhibit growth of C. albicans, C. kefyr, C. tropicalis, C. krusei, and C. glabrata.

The test system of a further experiment is C. tropicalis 750. In words: Candida growth inhibition, C. tropicalis 750. It counts as cell-based. On the procedure:
as §2, §3

Another experiment has as its system E. coli 700. Put plainly: Anti-cell growth activity, E. coli 700. It counts as cell-based. On the procedure:
as §1

In the next experiment the test system is C. albicans 90028. In words: Candida growth inhibition, C. albicans 90028. It counts as cell-based. On the procedure: as §2
The subject of the next experiment is HFF cells. Put plainly: Anti-cell growth activity, cultured mammalian HFF cells. It counts as cell-based. As for the experimental part: as §1
The subject of the next experiment is S. cerevisiae 2229-5C. Put plainly: Anti-cell growth activity, S. cerevisiae 2229-5C. It counts as cell-based. On the procedure: as §1
Another experiment has as its system C. keyfer 46764. In words: Candida growth inhibition, C. keyfer 46764. It counts as cell-based, C. kefyr. On the procedure:
as §2, §3

Another experiment relates to C. albicans #64. Put plainly: Candida growth inhibition, C. albicans #64. The experiment is classed as cell-based. As for the experimental part:
as §2, §3

In experiment [1] the test system is C. albicans, C. kefyr, C. tropicalis, C. krusei, and C. glabrata. Put plainly: Candida growth inhibition, all tested strains (summary). To be noted: range over all tested strains incl. fluconazole-resistant 93-1226 and UTR-14. The experiment is classed as cell-based, Candida spp. On the procedure:
as §2, §3

In the next experiment the test system is M. canis. Put plainly: Dermatophyte growth inhibition (microdilution, NCCLS M27A), M. canis. It counts as cell-based, Microsporum canis. The note with it: M. canis, four days at 35° C., visual inspection. On the procedure:
(§4) The compounds of the invention are also effective against dermatophytes. Testing was performed using a microdilution method based on the NCCLS M27A antifungal protocol. Compounds to be tested were prepared in DMSO and diluted to the appropriate concentration in RPMI 1640 medium (the dermatophyte growth medium). An inoculum of each test organism was prepared from oatmeal agar plates to contain 0.5-2.5×10^3 conidia/mL. One hundred microliters of the inoculum was added to each well of a 96-well microtiter plate containing 4 μL of a test compound and 96 μL of RPMI 1640. Terbinafine (sold under the brand name Lamisil®) was used as a positive control.
A general note: Broth dilution looks for growth in wells or tubes with falling amounts of substance.

The next experiment has as its system C. tropicalis 97-1037. In words: Candida growth inhibition, C. tropicalis 97-1037. The experiment is classed as cell-based. As for the experimental part: as §2, §3
Another experiment relates to C. krusei 97-1037. Put plainly: Candida growth inhibition, C. krusei 97-1037. The experiment is classed as cell-based. As for the experimental part: as §2, §3
For another experiment, the system named is C. albicans DSY1024. In words: Candida growth inhibition (XTT), C. albicans DSY1024. The experiment is classed as cell-based. On the procedure: as §2
LP416E8 (AC-05081-T4-3) was an organic extract of a manipulated plant cell culture from A. corsicum.
In general terms: Formazan colour is commonly taken as a measure of viable cells.

In another experiment the test system is T. mentagrophytes. In words: Dermatophyte growth inhibition (microdilution, NCCLS M27A), T. mentagrophytes. It counts as cell-based. The note with it: T. mentagrophytes, four days at 35° C., visual inspection. On the procedure:
as §4

A further experiment has as its system S. cerevisiae AD1-9. In words: Anti-cell growth activity, S. cerevisiae AD1-9. The experiment is classed as cell-based. As for the experimental part: as §1
The next experiment deals with other fungal strains. Put plainly: Anti-cell growth activity on other fungal strains (summary). It counts as cell-based. To be noted: range over other fungal strains of Table 3. On the procedure: as §1
A further experiment relates to E. faecalis 29212. Put plainly: Anti-cell growth activity, E. faecalis 29212. The experiment is classed as cell-based. As for the experimental part:
as §1

Another experiment has as its system C. albicans A26. In words: Candida growth inhibition, C. albicans A26. The experiment is classed as cell-based. On the procedure: as §2
The test system of a further experiment is C. albicans SC5314. In words: Candida growth inhibition (XTT), C. albicans SC5314. It counts as cell-based. As for the experimental part: as §2
The test system of the next experiment is C. tropicalis 623-20. Put plainly: Candida growth inhibition, C. tropicalis 623-20. The experiment is classed as cell-based. As for the experimental part: as §2, §3
For a further experiment, the system named is C. glabrata 95-2421. Put plainly: Candida growth inhibition, C. glabrata 95-2421. The experiment is classed as cell-based. As for the experimental part: as §2, §3
The next experiment deals with C. glabrata 95-2425. In words: Candida growth inhibition, C. glabrata 95-2425. The experiment is classed as cell-based. As for the experimental part:
as §2, §3

The test system of a further experiment is T. tonsurans. In words: Dermatophyte growth inhibition (microdilution, NCCLS M27A), T. tonsurans. The experiment is classed as cell-based. The note with it: T. tonsurans, four days at 35° C., visual inspection. As for the experimental part: as §4
The next experiment concerns Candida. Put plainly: Anti-Candida activity by backbone length. To be noted: X=7. It counts as cell-based. From the text: The variable X denotes the length of a saturated carbon backbone. The antifungal activity of the claimed compounds changes in part based on the length of this backbone. […] Preferably, X is an integer between 5 and 7, inclusive, although longer carbon chains (X=8-10) may preserve or increase antifungal activity.

A further experiment concerns C. glabrata 90030. Put plainly: Candida growth inhibition, C. glabrata 90030. The experiment is classed as cell-based. On the procedure: as §2, §3
The next experiment concerns C. krusei 6258. Put plainly: Candida growth inhibition, C. krusei 6258. The experiment is classed as cell-based. On the procedure:
as §2, §3

The test system of another experiment is C. albicans 93-1226. Put plainly: Candida growth inhibition, C. albicans 93-1226. The experiment is classed as cell-based. The note with it: C. albicans 93-1226, fluconazole-resistant strain. On the procedure: as §2, §3
Another experiment relates to A. fumigatus 8001. Put plainly: Anti-cell growth activity, A. fumigatus 8001. It counts as cell-based, Aspergillus fumigatus. On the procedure:
as §1

The subject of the next experiment is T. rubrum. Put plainly: Dermatophyte growth inhibition (microdilution, NCCLS M27A), T. rubrum. The experiment is classed as cell-based, Trichophyton rubrum. The note with it: T. rubrum, four days at 35° C., visual inspection. As for the experimental part:
as §4

As to `O=C(O)CCCCCCC/C=C/C#CC#Cc1ccco1` [Compound 1], the IC50 was 31.6 µg/mL (≈ 111 µM) with S. aureus 29213; 0.00364 µg/mL (≈ 0.0128 µM) in the experiment on C. albicans UTR-14; 0.00467 µg/mL (≈ 0.0164 µM) with C. tropicalis 750; 0.00122 µg/mL (≈ 0.00429 µM) in the experiment on C. albicans 90028; 12 µg/mL (≈ 42.2 µM) in the experiment on HFF cells; 0.5 to 1.0 µg/mL with S. cerevisiae 2229-5C. In addition, the IC50 in the experiment with C. albicans #64 amounted to 0.00145 µg/mL (≈ 0.0051 µM); with C. tropicalis 97-1037, 0.00368 µg/mL (≈ 0.0129 µM); in the experiment on C. krusei 97-1037 it was 0.0261 µg/mL (≈ 0.0918 µM); with S. cerevisiae AD1-9, 0.18 µg/mL (≈ 0.633 µM); with E. faecalis 29212, 7.5 µg/mL (≈ 26.4 µM); in the experiment on C. albicans A26 it was 0.0011 µg/mL (≈ 0.00387 µM). Further, the IC50 in the experiment on C. tropicalis 623-20 is 0.00296 µg/mL (≈ 0.0104 µM); in the experiment on C. glabrata 95-2421, 0.00825 µg/mL (≈ 0.029 µM); with C. glabrata 95-2425, 0.00313 to 0.00625 µg/mL; with C. glabrata 90030, 0.0125 to 0.025 µg/mL; with C. krusei 6258, 0.0419 µg/mL (≈ 0.147 µM); in the experiment with C. albicans 93-1226, 0.0021 µg/mL (≈ 0.00739 µM). Besides, in the experiment on A. fumigatus 8001, the IC50 lay in the range of 50 to 100 µg/mL. Besides, the MIC against S. aureus 29213 is 50 µg/mL (≈ 176 µM); with C. albicans UTR-14, 0.0025 µg/mL (≈ 0.00879 µM); in the experiment with C. tropicalis 750, 0.005 µg/mL (≈ 0.0176 µM); against E. coli 700 it was greater than 200 µg/mL; with S. cerevisiae 2229-5C, 1 µg/mL (≈ 3.52 µM); in the experiment with C. keyfer 46764, 0.01 µg/mL (≈ 0.0352 µM). For the same compound, the MIC is 0.005 µg/mL (≈ 0.0176 µM) against C. albicans #64; 0.001 µg/mL (≈ 0.00352 µM) with M. canis; 0.005 µg/mL (≈ 0.0176 µM) in the experiment on C. tropicalis 97-1037; 0.05 µg/mL (≈ 0.176 µM) with C. krusei 97-1037; 0.0025 µg/mL (≈ 0.00879 µM) against C. albicans DSY1024 (C. albicans DSY1024); 0.001 µg/mL (≈ 0.00352 µM) with T. mentagrophytes. For the same compound, the MIC in the experiment with S. cerevisiae AD1-9 is 0.25 µg/mL (≈ 0.879 µM); against E. faecalis 29212, 12.5 µg/mL (≈ 44 µM); against C. albicans SC5314 (C. albicans SC5314) it was 0.000625 µg/mL and 0.00125 µg/mL; against C. tropicalis 623-20, 0.005 µg/mL (≈ 0.0176 µM); against C. glabrata 95-2421, 0.0125 µg/mL (≈ 0.044 µM); in the experiment with C. glabrata 95-2425, 0.0125 µg/mL (≈ 0.044 µM). The MIC with T. tonsurans was 0.001 µg/mL (≈ 0.00352 µM); against C. glabrata 90030, 0.005 µg/mL (≈ 0.0176 µM); in the experiment with C. krusei 6258, 0.05 µg/mL (≈ 0.176 µM); against C. albicans 93-1226 it was 0.0025 µg/mL (≈ 0.00879 µM); against A. fumigatus 8001, 200 µg/mL (≈ 703 µM); in the experiment with T. rubrum, 0.001 µg/mL (≈ 0.00352 µM). The “IC50 values, all tested Candida strains” value in [1] fell in the range of 0.00035 to 0.042 µg/mL. Further, the “IC50 values, fungal growth, lower end of range” value with other fungal strains was no less than 0.18 µg/mL. Moreover, in the experiment with Candida, the “anti-Candida activity (ranking by backbone length X)” value is given as “greatest anti-Candida activity”.
`O=C(O)CCCCCC=CC#CC#Cc1ccco1` [Compound 2]: in the experiment on C. albicans DSY1024 (C. albicans DSY1024 (Table 4)), the IC50 turned out to be 1.817 µg/mL (≈ 7.09 µM) and the MIC was 3.125 µg/mL (≈ 12.2 µM). Also, the “inhibition of growth of strain SC5314” value in the experiment on C. albicans SC5314 is listed as “able to inhibit growth”. For the same compound, in the experiment with C. albicans SC5314 (C. albicans SC5314 (Table 4)), the IC50 was 2.592 µg/mL (≈ 10.1 µM) and the MIC is 3.125 µg/mL (≈ 12.2 µM).
In the case of `O=C(O)CCCCCCC=CC#CC#Cc1ccco1` [Compound 3], the MIC turned out to be 2.0 µg/mL (≈ 7.4 µM) against M. canis; 1 µg/mL (≈ 3.7 µM) with C. albicans DSY1024 (C. albicans DSY1024 (Table 4)); 2.0 µg/mL (≈ 7.4 µM) against T. mentagrophytes; 2.0 µg/mL (≈ 7.4 µM) against T. tonsurans; 8.0 µg/mL (≈ 29.6 µM) against T. rubrum. The compound also came in with an IC50 with C. albicans DSY1024 (C. albicans DSY1024 (Table 4)) of 0.503 µg/mL (≈ 1.86 µM).
In the experiment on C. albicans DSY1024 (C. albicans DSY1024 (Table 4)), `O=C(O)CCCCCCC/C=C\C#CC#Cc1ccco1` [Compound 5] had an IC50 of 0.0039 µg/mL (≈ 0.0137 µM) and an MIC of 0.0078 µg/mL (≈ 0.0274 µM). Further, the “anti-Candida activity (ranking by backbone length X)” value in the experiment on Candida is recorded as “greatest anti-Candida activity”.

As a reminder, the IC50 is the concentration needed to halve the response being measured. As usually defined, the MIC is the lowest concentration that inhibits growth of the organism. A high value points to a need for much substance.

The values are drawn from US6541506B1, “Antifungal enediynes” (Phytera Incorporated, priority 1999, dated 2003).
